Laboratory results reported in patent publication US20230081426A1, “COMPOUNDS AND METHODS FOR KRAS MODULATION AND INDICATIONS THEREFOR” (Plexxikon Inc., priority 2020, published 2023).

What was measured:
[1] = molecular target: T1, G12C-mutant human KRAS (amino acid residues 1-188) (Homo sapiens, UniProt P01116, G12C); test: KRAS Binding Disruption Assay (AlphaScreen; biotinylated KRpep-2d analogue or RAF1-RBD), G12C; details: geometric mean, read-out: KRAS GMean IC50 (uM) MUTATION: G12C
T1 construct: G12D or G12C-mutant human KRAS (amino acid residues 1-188) with FLAG tag; made in house; host or cells: E. coli
How it was run: (§1)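 Mutant KRAS (5-20 nM) incubated 1 h at 25° C with test compound and 5-20 nM biotinylated KRpep-2d analogue or RAF1-RBD in 20 mM HEPES pH 7.5, 100 mM NaCl, 5 mM MgCl2, 0.01% Tween-20, 0.01% BSA.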

[2] = molecular target: T2, G12D-mutant human KRAS (amino acid residues 1-188) (Homo sapiens, UniProt P01116, G12D); test: KRAS Binding Disruption Assay (AlphaScreen; biotinylated KRpep-2d analogue or RAF1-RBD), G12D; details: KRAS G12D; geometric mean; read-out: KRAS GMean IC50 (uM) MUTATION: G12D
T2 construct: G12D or G12C-mutant human KRAS (amino acid residues 1-188) with FLAG tag; made in house; host or cells: E. coli
How it was run: as §1

[3] = molecular target: T3, G12V-mutant human KRAS (amino acid residues 1-188) (Homo sapiens, UniProt P01116, G12V); test: KRAS Binding Competition Assay (AlphaScreen; biotinylated KRpep-2d analogue), G12V; details: geometric mean, read-out: KRAS GMean IC50 (uM) MUTATION: G12V
T3 construct: G12V-mutant human KRAS (amino acid residues 1-188) with FLAG tag was purified from E. coli; made in house; host or cells: E. coli

Measured: IC50

Cn1cc(NC(=O)N2[C@@H]3CC[C@H]2CN(c2nc(OCC45CCCN4CCC5)nc4cc(-c5cc(O)cc6ccccc56)ccc24)C3)cn1 [P-0128, (1R,5S)-3-(7-(3-hydroxynaphthalen-1-yl)-2-((tetrahydro-1H-pyrrolizin-7a(5H)-yl)methoxy)quinazolin-4-yl)-N-(1-methyl-1H-pyrazol-4-yl)-3,8-diazabicyclo[3.2.1]octane-8-carboxamide]
0.0001 to 10 µM: all assays above

O=C(NC1CCOC1)N1[C@@H]2CC[C@H]1CN(c1nc(OCC34CCCN3CCC4)nc3cc(-c4cc(O)cc5ccccc45)ccc13)C2 (stereo partly drawn) [P-0129, (1R,5S)-3-(7-(3-hydroxynaphthalen-1-yl)-2-((tetrahydro-1H-pyrrolizin-7a(5H)-yl)methoxy)quinazolin-4-yl)-N-(tetrahydrofuran-3-yl)-3,8-diazabicyclo[3.2.1]octane-8-carboxamide]
0.0001 to 10 µM: all assays above

O=C(N[C@H]1CC[C@@H](O)C1)N1[C@@H]2CC[C@H]1CN(c1nc(OCC34CCCN3CCC4)nc3cc(-c4cc(O)cc5ccccc45)ccc13)C2 [P-0130, (1R,5S)-N-((1S,3R)-3-hydroxycyclopentyl)-3-(7-(3-hydroxynaphthalen-1-yl)-2-((tetrahydro-1H-pyrrolizin-7a(5H)-yl)methoxy)quinazolin-4-yl)-3,8-diazabicyclo[3.2.1]octane-8-carboxamide]
0.0001 to 10 µM: all assays above

O=C(N[C@H]1CC[C@H](O)C1)N1[C@@H]2CC[C@H]1CN(c1nc(OCC34CCCN3CCC4)nc3cc(-c4cc(O)cc5ccccc45)ccc13)C2 [P-0131, (1R,5S)-N-((1S,3S)-3-hydroxycyclopentyl)-3-(7-(3-hydroxynaphthalen-1-yl)-2-((tetrahydro-1H-pyrrolizin-7a(5H)-yl)methoxy)quinazolin-4-yl)-3,8-diazabicyclo[3.2.1]octane-8-carboxamide]
0.0001 to 10 µM: all assays above

CN1CC[C@H](NC(=O)N2[C@@H]3CC[C@H]2CN(c2nc(OCC45CCCN4CCC5)nc4cc(-c5cc(O)cc6ccccc56)ccc24)C3)C1 [P-0132, (1R,5S)-3-(7-(3-hydroxynaphthalen-1-yl)-2-((tetrahydro-1H-pyrrolizin-7a(5H)-yl)methoxy)quinazolin-4-yl)-N-((S)-1-methylpyrrolidin-3-yl)-3,8-diazabicyclo[3.2.1]octane-8-carboxamide]
0.0001 to 10 µM: all assays above

CN1CC[C@@H](NC(=O)N2[C@@H]3CC[C@H]2CN(c2nc(OCC45CCCN4CCC5)nc4cc(-c5cc(O)cc6ccccc56)ccc24)C3)C1 [P-0133, (1R,5S)-3-(7-(3-hydroxynaphthalen-1-yl)-2-((tetrahydro-1H-pyrrolizin-7a(5H)-yl)methoxy)quinazolin-4-yl)-N-((R)-1-methylpyrrolidin-3-yl)-3,8-diazabicyclo[3.2.1]octane-8-carboxamide]
0.0001 to 10 µM: all assays above

O=C(NC1CCNCC1)N1[C@@H]2CC[C@H]1CN(c1nc(OCC34CCCN3CCC4)nc3cc(-c4cc(O)cc5ccccc45)ccc13)C2 [P-0134, (1R,5S)-3-(7-(3-hydroxynaphthalen-1-yl)-2-((tetrahydro-1H-pyrrolizin-7a(5H)-yl)methoxy)quinazolin-4-yl)-N-(piperidin-4-yl)-3,8-diazabicyclo[3.2.1]octane-8-carboxamide]
0.0001 to 10 µM: all assays above

O=C1NCCC1NC(=O)N1[C@@H]2CC[C@H]1CN(c1nc(OCC34CCCN3CCC4)nc3cc(-c4cc(O)cc5ccccc45)ccc13)C2 (stereo partly drawn) [P-0135, (1R,5S)-3-(7-(3-hydroxynaphthalen-1-yl)-2-((tetrahydro-1H-pyrrolizin-7a(5H)-yl)methoxy)quinazolin-4-yl)-N-(2-oxopyrrolidin-3-yl)-3,8-diazabicyclo[3.2.1]octane-8-carboxamide]
0.0001 to 10 µM: all assays above

Oc1cc(-c2ccc3c(N4C[C@H]5CC[C@@H](C4)N5)nc(OCC45CCCN4CCC5)nc3c2F)c2c(Cl)cccc2c1 [P-0136, 4-(4-((1R,5S)-3,8-diazabicyclo[3.2.1]octan-3-yl)-8-fluoro-2-((tetrahydro-1H-pyrrolizin-7a(5H)-yl)methoxy)quinazolin-7-yl)-5-chloronaphthalen-2-ol]
0.0001 to 10 µM: all assays above

Oc1cc(-c2c(F)cc3c(N4C[C@H]5CC[C@@H](C4)N5)nc(OCC45CCCN4CCC5)nc3c2F)c2c(Cl)cccc2c1 [P-0137, 4-(4-((1R,5S)-3,8-diazabicyclo[3.2.1]octan-3-yl)-6,8-difluoro-2-((tetrahydro-1H-pyrrolizin-7a(5H)-yl)methoxy)quinazolin-7-yl)-5-chloronaphthalen-2-ol]
0.0001 to 10 µM: all assays above

CN1CC[C@@H](NC(=O)N2[C@@H]3CC[C@H]2CN(c2nc(OCC45CCCN4CCC5)nc4c(F)c(-c5cc(O)cc6ccccc56)ccc24)C3)C1 [P-0186, (1R,5S)-3-(8-fluoro-7-(3-hydroxynaphthalen-1-yl)-2-((tetrahydro-1H-pyrrolizin-7a(5H)-yl)methoxy)quinazolin-4-yl)-N-((R)-1-methylpyrrolidin-3-yl)-3,8-diazabicyclo[3.2.1]octane-8-carboxamide]
0.0001 to 10 µM: all assays above

CN1CCC[C@H]1COc1nc(N2CC3COCC(C2)N3)c2ccc(-c3cc(O)cc4ccccc34)c(F)c2n1 [P-0249, 4-(4-(3-oxa-7,9-diazabicyclo[3.3.1]nonan-7-yl)-8-fluoro-2-(((S)-1-methylpyrrolidin-2-yl)methoxy)quinazolin-7-yl)naphthalen-2-ol]
0.0001 to 10 µM: all assays above

CN1CCC[C@H]1COc1nc(N2C[C@H]3CC[C@@H](C2)N3C(=O)CC2SC(=O)NC2=O)c2ccc(-c3cc(O)cc4ccccc34)c(F)c2n1 (stereo partly drawn) [P-0279, 5-(2-((1R,5S)-3-(8-fluoro-7-(3-hydroxynaphthalen-1-yl)-2-(((S)-1-methylpyrrolidin-2-yl)methoxy)quinazolin-4-yl)-3,8-diazabicyclo[3.2.1]octan-8-yl)-2-oxoethyl)thiazolidine-2,4-dione]
0.0001 to 10 µM: all assays above

O=C1NC(=O)C(CC(=O)N2[C@@H]3CC[C@H]2CN(c2nc(OCC45CCCN4CCC5)nc4c(F)c(-c5cc(O)cc6ccccc56)ccc24)C3)S1 (stereo partly drawn) [P-0299, 5-(2-((1R,5S)-3-(8-fluoro-7-(3-hydroxynaphthalen-1-yl)-2-((tetrahydro-1H-pyrrolizin-7a(5H)-yl)methoxy)quinazolin-4-yl)-3,8-diazabicyclo[3.2.1]octan-8-yl)-2-oxoethyl)thiazolidine-2,4-dione]
0.0001 to 10 µM: all assays above

CN1CCC[C@H]1COc1nc(N2CC3CCC2CN3C(=O)CC2SC(=O)NC2=O)c2ccc(-c3cc(O)cc4ccccc34)c(F)c2n1 (stereo partly drawn) [P-0328, 5-(2-(5-(8-fluoro-7-(3-hydroxynaphthalen-1-yl)-2-(((S)-1-methylpyrrolidin-2-yl)methoxy)quinazolin-4-yl)-2,5-diazabicyclo[2.2.2]octan-2-yl)-2-oxoethyl)thiazolidine-2,4-dione]
0.0001 to 10 µM: all assays above
